Test results from patent US7964584B2, “Method of treating or preventing osteoporosis comprising administering to a patient in need thereof an effective amount of pharmaceutical composition comprising benzamidine derivatives or their salts, and alendronic acid or its salt” (Dong Wha Pharmaceutical Co., Ltd., priority 2008, dated 2011).

System: osteoclast differentiation (co-culture of bone marrow cells and osteoblasts)
Assay: Osteoclast differentiation via co-culture of bone marrow cells and osteoblasts, count of TRAP(+) MNCs
Format: cell-based, mice
Settings: individual treatment, 7 days culture; for relative number of TRAP(+) MNCs (mature osteoclasts with 6 or more nuclei), control group = 100%: n=4
Procedure: The osteoclast differentiation was induced by co-culture system between bone marrow cells and […] inhibitory effect of the drug on osteoclast differentiation was evaluated by treatment of single or combination formulation. […] Cells were removed from the bone marrow cells, followed by centrifugation. After the bone marrow cells were suspended in α-MEM medium supplemented with 10% FBS, and the numbers of the eukaryotic cells in the harvested bone marrow cells were counted and then immediately used for a co-culture system. The mouse calvaria were aseptically isolated from 1 2 day-old neonatal ICR mice, and the […], primary osteoblasts were isolated by sequential treatment with an enzyme solution of 0.2% collagenase. The isolated […] centrifuged, resuspended with α-MEM containing 10% FBS and cultured until confluent. Then, these cells were diluted to a desired cell number, and used for the experiment. The bone marrow cells (1×10^5 cells/well) and osteoblasts (3,000 cells/well) prepared in the above were plated in a 96-well plate using α-MEM medium supplemented with 10% FBS. At this time, differentiation factors, 1α,25-dihydroxyvitamin D3 (10^-8 M, hereinbelow, referred to as vitamin D3) and dexamethasone (10^-8 M), were co-added to the osteoclastic medium. The medium was replaced with fresh media containing the differentiation factors every 2 to 3 days. After 7 days, when multinucleated osteoclasts were observed, the medium was removed from the wells, and then the cells were fixed with PBS containing 10% formalin. An index of osteoclast formation was determined by counting number of Tartrate-Resistant Acid Phosphatase-positive multinucleated osteoclasts (herein below, referred to as TRAP(+) MNCs). The TRAP staining solution was contained naphtol AS-MX phosphate(pH5.0)as a substrate, Fast Red violet LB as a coloring agent and 50 mM tartaric acid and stored at a refrigerator until use. The number of TRAP(+) MNCs containing more than 6-7 or more nuclei were counted under a microscope. […] All experiments were performed using the osteoclastic media containing vitamin D3 and dexamethasone. […] Sodium alendronate hydrate was dissolved in purified water at a concentration of 0.2 mM, and then diluted 1,000 fold with the osteoclastic media to a final concentration of 0.2 μM. In this connection, a control group was maintained in 0.1% DMSO. Each experiment was performed by individual or combination treatment, as follows. […] The number of TRAP(+) MNCs with 6 or more nuclei were counted under a microscope. The results were expressed as a percentage of the relative number of mature osteoclast observed in each experimental group, when the number of mature osteoclast in the control group (solvent only) was regarded as 100%. […]

| SMILES | relative number of TRAP(+) MNCs (mature osteoclasts with 6 or more nuclei), control group = 100% (0.1 μM) | relative number of osteoclast, control group = 100% (0.3 μM) [%] | relative number of osteoclast, control group = 100% (0.5 μM) [%] | relative number of TRAP(+) MNCs (mature osteoclasts with 6 or more nuclei), control group = 100% (0.2 μM) |
| --- | --- | --- | --- | --- |
| CS(=O)(=O)O.CS(=O)(=O)O.Cc1nc(-c2ccc(OCCCCCOc3ccc(C(=N)NO)cc3)cc2)c(C(C)C)s1 [N-hydroxy-4-{5-[4-(5-isopropyl-2-methyl-1,3-thiazol-4-yl)phenoxy]pentoxy}benzamidine dimethanesulfonate] | significant reduction | 52.4 | 34.5 | – |
| NCCCC(O)(P(=O)(O)O)P(=O)(O)O [sodium alendronate, reference compound] | – | – | – | 80.6% and significantly reduced |
